Data reported in ChEMBL document CHEMBL2021894, “The Discovery of VX-745: A Novel and Selective p38α Kinase Inhibitor” (ACS Med Chem Lett, 2011).
Activity calls are given as the source filed them. The rule behind the calls is not given here.

Experiments:
[1] = target: Tyrosine-protein kinase receptor UFO (Homo sapiens) (UniProt P30530); conditions: 2 uM
Description: Inhibition of Axl at 2 uM

[2] = Half life in Sprague-Dawley rat at 4.8 mg/kg, iv; type: ADME, organism-based; set-up: dose 4.8 mg/kg, route intravenous; conditions: in vivo
[3] = Half life in BALB/c mouse at 40 mg/kg, po; type: ADME, organism-based; set-up: dose 40 mg/kg, route oral; conditions: in vivo
[4] = target: Dual specificity mitogen-activated protein kinase kinase 1 (Homo sapiens) (UniProt Q02750); test: Inhibition of Mek1 at 2 uM
Chain of Dual specificity mitogen-activated protein kinase kinase 1 (Homo sapiens) (Q02750 whole entry): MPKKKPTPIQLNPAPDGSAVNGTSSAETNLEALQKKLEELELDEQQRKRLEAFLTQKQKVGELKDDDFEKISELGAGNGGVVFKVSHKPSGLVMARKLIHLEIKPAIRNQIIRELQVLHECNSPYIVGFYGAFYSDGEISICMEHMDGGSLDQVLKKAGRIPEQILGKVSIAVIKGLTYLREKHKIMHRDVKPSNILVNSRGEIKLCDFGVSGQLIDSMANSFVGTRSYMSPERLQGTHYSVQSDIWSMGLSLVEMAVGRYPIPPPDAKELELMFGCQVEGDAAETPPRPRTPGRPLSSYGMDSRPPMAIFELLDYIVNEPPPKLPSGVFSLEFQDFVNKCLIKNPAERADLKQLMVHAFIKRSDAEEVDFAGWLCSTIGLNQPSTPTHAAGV

[5] = target: Angiopoietin-1 receptor (Homo sapiens) (UniProt Q02763); conditions: 2 uM
Description: Inhibition of Tie2 at 2 uM

[6] = Inhibition of Gsk3 by filter binding assay
[7] = target: Serine/threonine-protein kinase N2 (Homo sapiens) (UniProt Q16513); test: Inhibition of PRK2 at 2 uM
[8] = Oral bioavailability in Sprague-Dawley rat at 43 mg/kg; type: ADME, organism-based; conditions: in vivo
[9] = target: Serine/threonine-protein kinase PAK 2 (Homo sapiens) (UniProt Q13177); conditions: 2 uM
Chain of Serine/threonine-protein kinase PAK 2 (Homo sapiens) (Q13177 whole entry): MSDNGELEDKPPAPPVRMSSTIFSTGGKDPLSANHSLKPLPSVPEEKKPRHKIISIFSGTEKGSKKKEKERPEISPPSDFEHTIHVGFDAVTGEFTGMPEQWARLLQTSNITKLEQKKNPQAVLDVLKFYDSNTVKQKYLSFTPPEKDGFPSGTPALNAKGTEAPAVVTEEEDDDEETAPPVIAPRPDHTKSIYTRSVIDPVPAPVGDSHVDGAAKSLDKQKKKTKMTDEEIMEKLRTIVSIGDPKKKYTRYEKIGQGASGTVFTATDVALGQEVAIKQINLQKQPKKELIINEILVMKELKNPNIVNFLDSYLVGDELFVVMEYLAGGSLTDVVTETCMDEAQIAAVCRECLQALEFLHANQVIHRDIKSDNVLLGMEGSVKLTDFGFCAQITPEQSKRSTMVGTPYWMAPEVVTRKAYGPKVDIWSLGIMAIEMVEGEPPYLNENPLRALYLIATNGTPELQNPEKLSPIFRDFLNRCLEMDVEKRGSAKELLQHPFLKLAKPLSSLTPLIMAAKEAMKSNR
Description: Inhibition of PAK2 at 2 uM

[10] = target: Fibroblast growth factor receptor 3 (Homo sapiens) (UniProt P22607); test: Inhibition of FGFR3 at 2 uM
Chain of Fibroblast growth factor receptor 3 (Homo sapiens) (P22607 23-806 limits assumed): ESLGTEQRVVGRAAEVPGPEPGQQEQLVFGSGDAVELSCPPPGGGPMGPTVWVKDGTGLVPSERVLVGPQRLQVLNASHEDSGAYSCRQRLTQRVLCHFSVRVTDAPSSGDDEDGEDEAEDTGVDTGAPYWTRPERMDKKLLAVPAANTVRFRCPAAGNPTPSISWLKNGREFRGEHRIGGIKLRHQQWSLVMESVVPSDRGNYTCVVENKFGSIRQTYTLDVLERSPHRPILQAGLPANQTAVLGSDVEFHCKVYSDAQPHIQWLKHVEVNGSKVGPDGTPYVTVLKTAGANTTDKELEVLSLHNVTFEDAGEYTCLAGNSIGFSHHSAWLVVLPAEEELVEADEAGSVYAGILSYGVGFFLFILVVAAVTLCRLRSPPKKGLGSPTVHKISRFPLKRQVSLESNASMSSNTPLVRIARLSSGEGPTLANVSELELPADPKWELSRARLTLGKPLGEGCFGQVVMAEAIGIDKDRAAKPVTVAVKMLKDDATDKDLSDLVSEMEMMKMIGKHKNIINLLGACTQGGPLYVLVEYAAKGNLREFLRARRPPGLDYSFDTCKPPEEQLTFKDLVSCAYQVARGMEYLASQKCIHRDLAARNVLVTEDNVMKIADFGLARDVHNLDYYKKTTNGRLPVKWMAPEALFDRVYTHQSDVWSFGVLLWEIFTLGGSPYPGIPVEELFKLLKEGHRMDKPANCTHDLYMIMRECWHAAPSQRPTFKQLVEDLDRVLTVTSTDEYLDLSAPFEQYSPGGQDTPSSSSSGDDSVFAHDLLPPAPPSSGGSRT

[11] = target: Insulin receptor (Homo sapiens) (UniProt P06213); conditions: 2 uM
Description: Inhibition of IRTK at 2 uM

[12] = target: Tyrosine-protein kinase Fes/Fps (Homo sapiens) (UniProt P07332); conditions: 2 uM
Description: Inhibition of FES at 2 uM

[13] = Plasma protein binding in dog; type: ADME, cell-free, Canis lupus familiaris; conditions: read-out: PPB (converted)
[14] = target: Tyrosine-protein kinase Blk (Homo sapiens) (UniProt P51451); conditions: 2 uM
Chain of Tyrosine-protein kinase Blk (Homo sapiens) (P51451 2-505 limits assumed): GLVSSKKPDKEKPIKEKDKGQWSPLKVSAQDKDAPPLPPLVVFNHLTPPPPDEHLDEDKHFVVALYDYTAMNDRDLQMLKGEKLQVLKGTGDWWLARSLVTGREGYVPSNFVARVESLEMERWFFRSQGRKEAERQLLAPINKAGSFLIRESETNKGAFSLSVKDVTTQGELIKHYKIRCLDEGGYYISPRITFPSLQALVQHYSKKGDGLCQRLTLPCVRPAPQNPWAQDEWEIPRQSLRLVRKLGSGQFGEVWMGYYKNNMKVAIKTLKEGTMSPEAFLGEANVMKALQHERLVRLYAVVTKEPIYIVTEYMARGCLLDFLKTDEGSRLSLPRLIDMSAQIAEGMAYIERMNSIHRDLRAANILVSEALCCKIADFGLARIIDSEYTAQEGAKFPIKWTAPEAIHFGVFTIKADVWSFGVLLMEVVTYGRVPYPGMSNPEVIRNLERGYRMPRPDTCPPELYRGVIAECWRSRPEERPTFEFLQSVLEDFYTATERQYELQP
Description: Inhibition of Blk at 2 uM

Canis familiaris = test: Oral bioavailability in beagle dog at 33 mg/kg; type: ADME, organism-based, Canis lupus familiaris; conditions: in vivo
[15] = target: Dual specificity mitogen-activated protein kinase kinase 6 (Homo sapiens) (UniProt P52564); test: Inhibition of MKK6
Chain of Dual specificity mitogen-activated protein kinase kinase 6 (Homo sapiens) (P52564 whole entry): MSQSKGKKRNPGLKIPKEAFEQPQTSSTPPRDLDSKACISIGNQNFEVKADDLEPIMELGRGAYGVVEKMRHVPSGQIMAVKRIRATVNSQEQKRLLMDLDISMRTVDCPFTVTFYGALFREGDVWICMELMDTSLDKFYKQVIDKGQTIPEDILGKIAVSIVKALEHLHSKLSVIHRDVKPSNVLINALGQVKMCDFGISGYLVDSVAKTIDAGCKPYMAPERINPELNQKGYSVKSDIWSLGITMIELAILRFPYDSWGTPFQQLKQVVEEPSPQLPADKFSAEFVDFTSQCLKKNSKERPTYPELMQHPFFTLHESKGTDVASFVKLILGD

[16] = target: Tyrosine-protein kinase Fyn (Homo sapiens) (UniProt P06241); test: Inhibition of Fyn at 2 uM
Chain of Tyrosine-protein kinase Fyn (Homo sapiens) (P06241 2-537 limits assumed): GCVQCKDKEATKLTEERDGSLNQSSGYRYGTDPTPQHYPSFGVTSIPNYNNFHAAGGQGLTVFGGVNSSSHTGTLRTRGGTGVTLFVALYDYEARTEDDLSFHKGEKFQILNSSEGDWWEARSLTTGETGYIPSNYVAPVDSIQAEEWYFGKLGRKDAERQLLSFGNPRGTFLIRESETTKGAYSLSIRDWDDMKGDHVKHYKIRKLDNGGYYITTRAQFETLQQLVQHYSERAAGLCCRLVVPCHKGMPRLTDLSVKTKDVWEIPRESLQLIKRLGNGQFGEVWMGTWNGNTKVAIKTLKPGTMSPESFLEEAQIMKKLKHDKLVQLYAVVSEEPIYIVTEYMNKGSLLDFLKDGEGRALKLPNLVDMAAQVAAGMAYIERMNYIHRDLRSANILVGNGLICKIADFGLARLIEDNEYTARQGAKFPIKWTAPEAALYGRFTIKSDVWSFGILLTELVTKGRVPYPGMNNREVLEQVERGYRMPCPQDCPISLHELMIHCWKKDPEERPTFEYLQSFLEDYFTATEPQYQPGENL

Mus musculus [17] = test: Antiarthritic activity in complete Freund's adjuvant-immunized DBA/1J mouse assessed as inhibition of type 2 collagen-induced paw inflammation at 5 mg/kg, po bid measured on day 20; type: functional; conditions: 480 h
[18] = target: Cyclin-dependent kinase 1 (Homo sapiens) (UniProt P06493); conditions: 2 uM
Chain of Cyclin-dependent kinase 1 (Homo sapiens) (P06493 whole entry, looked up): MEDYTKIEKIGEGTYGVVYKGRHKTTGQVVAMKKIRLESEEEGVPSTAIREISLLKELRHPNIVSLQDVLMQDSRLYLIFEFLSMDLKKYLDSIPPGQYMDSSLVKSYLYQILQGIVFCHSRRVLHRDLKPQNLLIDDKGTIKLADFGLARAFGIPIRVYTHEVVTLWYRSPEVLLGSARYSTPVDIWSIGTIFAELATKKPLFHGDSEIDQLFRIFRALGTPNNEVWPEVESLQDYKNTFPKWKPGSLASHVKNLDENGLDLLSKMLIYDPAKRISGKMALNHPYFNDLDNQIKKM
Description: Inhibition of CDK1 at 2 uM

[19] = Half life in BALB/c mouse at 2 mg/kg, iv; type: ADME, organism-based; set-up: dose 2 mg/kg, route intravenous; conditions: in vivo
[20] = target: Mitogen-activated protein kinase 8 (Homo sapiens) (UniProt P45983); test: Inhibition of JNK1 at 2 uM
Chain of Mitogen-activated protein kinase 8 (Homo sapiens) (P45983 whole entry): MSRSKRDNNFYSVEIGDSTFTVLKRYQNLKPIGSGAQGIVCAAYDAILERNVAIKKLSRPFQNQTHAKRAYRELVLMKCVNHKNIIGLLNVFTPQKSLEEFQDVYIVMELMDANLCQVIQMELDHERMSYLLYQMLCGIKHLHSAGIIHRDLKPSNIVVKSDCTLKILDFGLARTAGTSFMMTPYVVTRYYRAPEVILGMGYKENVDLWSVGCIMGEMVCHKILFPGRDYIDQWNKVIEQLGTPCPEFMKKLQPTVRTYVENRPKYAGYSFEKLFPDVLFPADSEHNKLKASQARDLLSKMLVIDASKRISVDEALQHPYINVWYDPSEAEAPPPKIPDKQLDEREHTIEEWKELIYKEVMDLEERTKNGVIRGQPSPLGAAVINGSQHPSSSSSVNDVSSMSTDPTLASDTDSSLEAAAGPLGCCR

[21] = Volume of distribution at steady state in Sprague-Dawley rat at 4.8 mg/kg, iv; type: ADME, organism-based; set-up: dose 4.8 mg/kg, route intravenous; conditions: in vivo, read-out: Vdss
[22] = Half life in Sprague-Dawley rat at 43 mg/kg, po; type: ADME, organism-based; set-up: dose 43 mg/kg, route oral; conditions: in vivo
[23] = Clearance in Sprague-Dawley rat at 4.8 mg/kg, iv; type: ADME, organism-based; set-up: dose 4.8 mg/kg, route intravenous; conditions: in vivo
[24] = Clearance in BALB/c mouse at 2 mg/kg, iv; type: ADME, organism-based; set-up: dose 2 mg/kg, route intravenous; conditions: in vivo
PBMC = test: Antiproliferative activity against PHA-stimulated human PBMC assessed as inhibition of cell proliferation after 72 hrs by thymidine incorporation assay; type: cell-based
[25] = target: Dual specificity mitogen-activated protein kinase kinase 2 (Homo sapiens) (UniProt P36507); test: Inhibition of MEK2 at 2 uM
Mus musculus [26] = test: Antiarthritic activity in complete Freund's adjuvant-immunized DBA/1J mouse assessed as inhibition of type 2 collagen-induced bone and cartilage erosion at 5 mg/kg, po bid measured on day 20; type: functional; conditions: 480 h
[27] = AUC in BALB/c mouse at 2 mg/kg, iv; type: ADME, organism-based; set-up: dose 2 mg/kg, route intravenous; conditions: plasma
[28] = Volume of distribution at steady state in beagle dog at 13.8 mg/kg, iv; type: ADME, organism-based, Canis lupus familiaris; set-up: dose 13.8 mg/kg, route intravenous; conditions: in vivo, read-out: Vdss

Chain of Tyrosine-protein kinase receptor UFO (Homo sapiens) (P30530 whole entry): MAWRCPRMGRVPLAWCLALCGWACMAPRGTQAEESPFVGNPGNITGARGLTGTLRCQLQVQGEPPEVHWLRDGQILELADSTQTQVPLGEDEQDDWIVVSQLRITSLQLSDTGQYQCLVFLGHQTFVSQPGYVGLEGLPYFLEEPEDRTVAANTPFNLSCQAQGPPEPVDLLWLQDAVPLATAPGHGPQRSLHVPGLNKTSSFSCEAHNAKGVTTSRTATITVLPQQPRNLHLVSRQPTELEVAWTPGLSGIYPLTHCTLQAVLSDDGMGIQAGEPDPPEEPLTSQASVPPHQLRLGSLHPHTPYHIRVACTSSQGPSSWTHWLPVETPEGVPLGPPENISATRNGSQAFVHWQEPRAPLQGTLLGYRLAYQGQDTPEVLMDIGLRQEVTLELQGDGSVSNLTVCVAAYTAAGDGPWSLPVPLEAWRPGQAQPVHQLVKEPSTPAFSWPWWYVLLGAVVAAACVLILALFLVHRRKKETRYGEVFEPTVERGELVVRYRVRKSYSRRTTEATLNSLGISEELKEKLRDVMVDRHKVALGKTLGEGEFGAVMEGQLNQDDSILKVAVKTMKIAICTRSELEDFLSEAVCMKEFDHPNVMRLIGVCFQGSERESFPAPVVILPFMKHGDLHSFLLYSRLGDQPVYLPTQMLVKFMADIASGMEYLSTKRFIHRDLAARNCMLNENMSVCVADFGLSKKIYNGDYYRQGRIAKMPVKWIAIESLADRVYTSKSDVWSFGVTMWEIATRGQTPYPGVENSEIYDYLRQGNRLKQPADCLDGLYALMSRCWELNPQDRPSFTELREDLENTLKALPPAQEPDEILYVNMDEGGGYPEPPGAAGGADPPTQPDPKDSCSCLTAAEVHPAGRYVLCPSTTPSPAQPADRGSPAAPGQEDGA

O=c1ncn2nc(Sc3ccc(F)cc3F)ccc2c1-c1c(Cl)cccc1Cl [NEFLAMAPIMOD]
inhibition [1]: 0% | half-life [2]: 1.9 h | half-life [3]: 4.5 h | inhibition [4]: 5% | inhibition [5]: 0% | IC50 [6]: > 5 µM | inhibition [7]: 13% | bioavailability [8]: 56% | inhibition [9]: 0% | inhibition [10]: 20% | inhibition [11]: 0% | inhibition [12]: 7% | fraction unbound [13]: 0.08 | inhibition [14]: 0% | F (Canis familiaris): 69% | inhibition [15]: Active | inhibition [16]: 6% | inhibition in vivo at 5 mg/kg (Mus musculus [17]): 31% | inhibition [18]: 0% | half-life [19]: 2.6 h | inhibition [20]: 10% | Vd [21]: 3.9 L/kg | half-life [22]: 4.5 h | clearance [23]: 63 mL/min/kg | clearance [24]: 21 mL/min/kg | Activity (PBMC): Non-toxic | inhibition [25]: 14% | inhibition in vivo at 5 mg/kg (Mus musculus [26]): 32% | AUC [27]: 1540 ng·h/mL | Vd [28]: 2.3 L/kg
